Results from publication PMC13242511, “Disrupting Notch signalling by a small molecule inhibiting dihydroorotate dehydrogenase activity” (Scientific Reports, 2026).

How the values were obtained:
[1] = biological target: γ-secretase complex (Homo sapiens, UniProt P49768); assay: APP-C99 counter assay (GSI reporter assay); format: cell-based; settings: 14p APP assay DR; bottom constrained to Emax of positive control LY-411575
Description: To this end, we used a previously established reporter gene-based GSI assay (APP-C99) (Fig. 3A), which measures γ-secretase activity through cleavage of amyloid precursor protein (APP), another protein processed by the γ-secretase complex[24]
Plasmids for APP and luciferase are described in[24] and the renilla plasmid described above generated for this project was used to normalize firefly values. 24 h post transfection cells were seeded on compound plates and cells were cultivated for 24 h before luciferase signals were read, as described.
Two-fold concentrations of compounds were diluted in 10 µl cell culture medium and brought to one-fold by seeding 10 µl containing 4000 cells of the respective cell type on each well of a 384-well plate, as described above. Analogous to the previous assays, all plates contained one DMSO and DAPT control column with the Notch reporter cell line (#A1-11) and a DMSO only and Notch inhibitor control plate was read before the measuring the screening plates. In addition, DAPT and DMSO were spotted in a dose response fashion, and a minimum of four replicates were read. Dose-responses of compounds were recorded in triplicates for each concentration reading out the dual luciferase reporters, as described above. Dose response assays were read together in one session. To measure compound effects, the different assays dose–response curves were fitted using the log(inhibitor) vs. response – Variable slope (model: Y = Bottom + (Top–Bottom)/(1 + 10^((LogIC50-X)*HillSlope)) equation.
A DMSO plate was read before measuring luciferase activity of compound spotted plates. APP firefly luciferase reporter assays were read with a signal integration time of 0.1 s, instead of 0.5 s used for the Notch reporter to reduce signal overlap between wells. […] The area-under-the-curve (AUC) was calculated on dose–response curves using Graphpad Prism.

[2] = system: Notch signalling; assay: Notch reporter assay (12xCSL firefly luciferase / renilla luciferase, HEK293T Notch1ΔE reporter cell line clone #A1-11); format: cell-based; settings: luciferase inhibitor controls in three-dose regimen (1.25, 10 and 25 µM); Supplemental Fig. 2G
Description: To identify novel Notch inhibitors in an unbiased manner, we generated a novel Notch reporter construct, which records the level of Notch signalling immediately downstream of receptor activation rather than further downstream in the signalling cascade, for example at the level of Hes and Hey proteins (Fig. 1B). […] The reporter construct carries piggy-bac sequences at both ends of the promoter-reporter cassette as well as cSH4 insulator elements to reduce transcriptional noise[21] and was transfected into HEK293T cells. To achieve a robust level of Notch receptor activity in the HEK293T reporter cell line and to confine the search for inhibitors to compounds affecting the receptor function and eliminating the need for ligand activation, a truncated ligand-independent version of the Notch1 receptor, mimicking an S2-cleaved Notch1 receptor (Notch1ΔE) and spontaneously activated by S3-cleavage[22] (Fig. 1C) was introduced into the cell line carrying the reporter construct (Fig. 1D). In addition, an HSV-TK-renilla luciferase plasmid was introduced into the cell line as an internal control for normalisation of the reporter expression (Fig. 1D).
A de novo Notch reporter construct, composed of six dimeric CSL binding sites linked to a basic b-globin promoter and followed by a firefly luciferase gene and a PEST degradation domain was synthesised (GeneArt). The construct was stably introduced into HEK293T cells, and zeocin (0.1 mg/ml) or Puromycin (0.05 mg/ml (ThermoFisher, cat #R25001, #A1113803) were used as selection markers. A clonal cell line (clone #A1) with robust renilla expression and enhanced firefly luciferase expression upon transient transfection of Notch1 ICD or Notch1ΔE constructs was selected, and a UB6 promoter-Notch1DE construct was stably introduced into this cell line using Blasticidin (0.1 mg/ml; ThermoFisher, cat #A1113903) as a selection marker. Stable cell lines were generated by serial dilution and only clonal colonies were selected for further evaluation. To measure luciferase reporter activity, cells were washed in cold PBS, detached, and collected in pre-warmed cell culture medium and centrifugated for five min at 200xg. The cell pellet was resuspended in medium, cells were counted, and 4,000 cells were seeded in each well of a white 384 well plate (Corning #3670) in 20 µl medium containing either DMSO or the GSI DAPT (N-[N-(3,5-Difluorophenacetyl)-L-alanyl]-S-phenylglycine t-butyl ester, Sigma-Aldrich, cat #565784-M) and incubated for 24 h. The efficacy of the reporter gene system was determined by monitoring the level of luciferase activation in the absence or presence of different amounts of DAPT in several cell clones. Luciferase activity was assessed using the dual-GLO luciferase detection kit from Promega (cat # E2920), following the manufacturer’s instructions. A minimum of two technical replicates were measured per clone using a SpectraMaxi3 plate reader (Molecular Devices). Reporter activity of different clones and in response to DAPT was assessed by normalising firefly (Notch activity) to renilla luciferase signals. Normalised signals of individual clones cultivated in DMSO were then compared to corresponding signals generated with DAPT-treated cells. The cell clone with the strongest signal to control ratio (DMSO to DAPT) was then selected for further exploration (clone #A1-11).
37,966 compounds were spotted by the compound center at SciLifeLab (https://www.scilifelab.se/) on a total of 120 plates (Greiner #781080) at a fixed concentration of 10 µM and the screening process spanned five consecutive sessions. The layout of each plate contained one column for DMSO and one for DAPT controls to determine the quality and reliability of the data. DAPT controls were spotted at 10 µM and DMSO was spotted in an equimolar volume. In addition, plates spotted with only DMSO were utilized to investigate the impact of plate effects before and after each session. […]

| Hill-slope [1] | curve fit information [1] | Structure (SMILES) | signal reduced by [2] |
| --- | --- | --- | --- |
| -0.0365 | – | O=C(O)c1ccccc1C(=O)N1CCC2(CC1)OCCc1c2[nH]c2ccccc12 [CBK046981] | – |
| 3.84e-13 | IC50 indeterminate | CCn1ccc(CN(CCOC)C(=O)c2cc3c(Cl)cccc3[nH]2)n1 [CBK306903] | – |
| -0.0304 | – | O=C(O)c1cc(Cl)c(Cl)cc1C(=O)N1CCC2(CC1)OCCc1c2[nH]c2ccccc12 [CBK047019] | – |
| -8.4 | – | COc1ccc2[nH]c3c(c2c1)CCOC31CCN(C(=O)c2ccccc2C(=O)O)CC1 [CBK047213] | – |
| -0.9 | – | O=C(O)c1cccc2cccc(C(=O)N3CCC4(CC3)OCCc3c4[nH]c4ccccc34)c12 [CBK047027] | – |

Continued, molecule first:

| Structure (SMILES) | Hill-slope [1] | curve fit information [1] | signal reduced by [2] |
| --- | --- | --- | --- |
| COc1ccc2cc(C(=O)N3Cc4cn(CCO)nc4C3)n(C)c2c1 [CBK306707] | 0.423 | – | – |
| COc1ccc(-c2cn3ccnc3c(Nc3cc(OC)c(OC)c(OC)c3)n2)cc1OC [CBK066261] | 0.0544 | – | – |
| O=C(O)c1cccc(-c2noc(-c3ccccc3F)n2)c1 [PTC-124, reference compound] | – | – | 83% |
| COc1cc(Nc2nc(-c3ccccc3)cn3ccnc23)cc(OC)c1OC [CBK066345] | 0.0472 | – | – |
